Experiments:
PPARα = PPARα activation in vitro in HepG2 cells (Gal4 DNA binding domain / PPARα ligand binding domain chimera); assay type: cell-based; settings: dose-dependent, FIG. 11
Experimental: Plasmids pG5TkpGL3, pGal4-hPPARα, pGal4-hPPARγ and pGal4-φ have been described previously (Raspé et al., J. Lipid Res. 40, 2099-2110, 1999). The pGal4-mPPARα and pGal4-hPPARδ constructs were obtained by cloning PCR-amplified DNA fragments corresponding to the DEF domains of the mouse PPARα and human PPARδ nuclear receptors into the pGal4-φ vector.
HepG2 and RK13 cells were from ECACC (Porton Down, UK) and were grown in DMEM medium supplemented with 10% (VN) fetal calf serum, 100 U/ml penicillin (Gibco, Paisley, UK) and 2 mM L-glutamine (Gibco, Paisley, UK). The culture medium was replaced every two days. Cells were kept at 37° C. in a humidified 5% CO2/95% air atmosphere.
HepG2 and RK13 cells seeded in 24-well culture dishes at a rate of 10^5 cells/well for HepG2 cells and 5×10^4 cells/well for RK13 cells were transfected for 2 hours with the reporter plasmid pG5TkpGL3 (10 ng/well), the expression vectors pGal4-φ, pGal4-mPPARα, pGal4-hPPARα, pGal4-hPPARγ, pGal4-hPPARδ (10 ng/well) and the transfection efficiency control vector pRL-null (Promega Madison, Wis., USA) (20 ng/well) according to the protocol previously described (Raspé et al., J. Lipid Res. 40, 2099-2110, 1999) and incubated for 36 hours with the test compounds. […]

[1] = Plasma cholesterol and triglycerides in Zucker rats; assay type: in vivo, rat
Description: (§1) Male C57BL/6 mice (Charles River, L'Arbresle, France) aged 6 weeks at the start of the experiments were randomly divided into groups of 6 animals such that body weight distribution was uniform. Mice were given a low-fat diet (UAR AO4), a high-fat diet (29% (m/m) coconut oil) or the same enriched diet supplemented with the test compounds. Obese male Zucker rats (fa/fa) or non obese rats (fa/+) aged 5 or 21 weeks (Charles River, L'Arbresle, France) were divided into groups of 8 animals selected such that the distribution of plasma cholesterol and triglyceride levels was uniform, and maintained on a standard diet. Animals were housed in a 12 hour light/dark cycle at a constant temperature of 20° C.±3° C. Animals had access to food and water ad libitum. Food intake and weight increase were recorded. The test compounds were suspended in carboxymethylcellulose and administered by gastric lavage at the indicated doses, once a day for 15 days. At the end of treatment, some animals underwent a glucose tolerance test as described hereinbelow. At the end of the experiment the other animals were weighed and sacrificed under anesthesia after a 5 hour fast. Blood was collected on EDTA. Plasma was prepared by centrifugation at 3000 rpm for 20 minutes. Liver samples were removed and stored frozen in liquid nitrogen for subsequent analysis.
Plasma lipid concentrations (total cholesterol and triglycerides) were determined by a colorimetric assay (Bio-Mérieux, Marcy l'Etoile, France) according to the supplier's instructions.

[2] = Glucose tolerance test in Zucker rats; assay type: in vivo, rat; settings: 300 mg/kg/d
Description: as §1
Insulinemia was assayed on serum or plasma collected on EDTA. […]

[3] = Plasma lipids and their distribution in lipoparticles in Sprague-Dawley rats; assay type: in vivo, rat; settings: 300 mg/kg/d
Experimental: (§2) Sprague-Dawley or Wistar rats weighing 200 to 230 g (Charles River, L'Arbresle, France) were housed in a 12-hour light/dark cycle at a constant temperature of 20±3° C. After a 1-week acclimatization period, rats were weighed and distributed into groups of 8 animals selected such that the distribution of plasma cholesterol and triglyceride levels was uniform. The test compounds were suspended in carboxymethylcellulose and administered by gastric lavage at the indicated doses, once a day for 15 days. Animals had access to food and water ad libitum. At the end of the experiments, animals were weighed and sacrificed under anesthesia after a 5-hour fast. Blood was collected on EDTA. Plasma was isolated by centrifugation at 3000 rpm for 20 minutes. Liver samples were removed and stored frozen in liquid nitrogen until further analysis.
(§3) Lipid concentrations in plasma (total cholesterol and free cholesterol, triglycerides and phospholipids) were determined by a colorimetric assay (Bio-Mérieux, Marcy I'Etoile, France) according to the supplier's instructions. Plasma concentrations of apolipoproteins AII, AI and CIII were determined as previously described (Raspé et al., J. Lipid Res. 40, 2099-2110, 1999, Asset G et al., Lipids, 34, 39-44, 1999).
To separate the lipoproteins according to size, 300 μl of plasma were loaded on a Sepharose 6HR 10/30 column (Pharmacia, Uppsala, Sweden) and eluted at a constant flow rate (0.2 ml/minute) in PBS (pH 7.2). Optical density of the eluent was recorded at 280 nm. 0.3 ml fractions were collected. Lipid concentrations in the different fractions were determined by a colorimetric assay (Bio-Mérieux, Marcy I'Etoile, France) according to the supplier's instructions.

ABCA1 gene expression = test: ABCA1 and LXRα gene expression in human macrophages; assay type: cell-based; settings: compound solubilized according to example 6, dose-dependent, FIG. 12
Experimental: THP-1 monocytes (ATCC, Rockville, Md., USA) were placed in 6-well culture dishes in the presence of PMA (phorbol myristate acetate) and fetal calf serum and incubated at 37° C. for 48 hours to allow them to differentiate to macrophages.
To obtain primary macrophages, mononuclear cells were isolated from human blood as previously described (Chinetti et al. Nat. Medecine 7(1), 53-58, 2001), placed in 6-well culture dishes and grown for 10 days in the presence of human serum to enable adherence and differentiation of the primary monocytes to macrophages.
Treatment with the different compounds was carried out for 48 hours in medium without human or fetal calf serum but supplemented with 1% Nutridoma HU serum (Boehringer).
Total RNA was extracted from treated macrophages with the mini RNeasy kit (Qiagen, Hilden, Germany) according to the supplier's instructions, assayed by spectrometry and quantified by quantitative RT-PCR with the Light Cycler Fast DNA Master Green I kit (Hoffman-La Riche, Basel, Switzerland) on a Light Cycler System (Hoffman-La Riche, Basel, Switzerland). Primer pairs specific for the ABCA1 and LXRα genes were used as probes.

[4] = system: hepatic expression of ACO, CPT-I, CPT-II, Apo AI, Apo CIII genes; test: Hepatic gene expression (RT-PCR) in treated Sprague-Dawley rats; assay type: in vivo, rat; settings: 300 mg/kg/d
Experimental: as §2
Total RNA was isolated from the liver fragments by extraction with a mixture of guanidine thiocyanate/phenol acid/chloroform as previously described (Raspé et al., J. Lipid Res. 40, 2099-2110, 1999). Messenger RNA was quantified by semi-quantitative or quantitative RT-PCR with the Light Cycler Fast Start DNA Master Sybr Green I kit (Hoffman-La Roche, Basel, Switzerland) on a Light Cycler System (Hoffman-La Roche, Basel, Switzerland). Primer pairs specific for the ACO, Apo CIII, Apo AI, CPT-I and CPT-II genes were used as probes. Primer pairs specific for the 36B4, β-actin and GAPDH genes were used as control probes (see table I).

[5] = Plasma insulin and glucose balance in Zucker rats; assay type: in vivo, rat; settings: 300 mg/kg/d
Description: as §1
Blood glucose was determined by a colorimetric enzymatic assay (Sigma Aldrich, St Louis, Mo., USA).
Insulinemia was assayed on serum or plasma collected on EDTA.

[6] = Plasma cholesterol and triglycerides in Wistar rats; assay type: in vivo, rat; settings: 300 mg/kg/d, after 14 days of treatment
Experimental: as §2, with “The test compounds were suspended in carboxymethylcellulose and administered by gastric lavage at the indicated doses, once a day for 15 days.” left out
as §3

[7] = system: hepatic expression of the ACO gene; test: Hepatic ACO gene expression in treated Wistar rats; assay type: in vivo, rat; settings: 300 mg/kg/d, FIG. 9C
Experimental: as §2
Total RNA was isolated from the liver fragments by extraction with a mixture of guanidine thiocyanate/phenol acid/chloroform as previously described (Raspé et al., J. Lipid Res. 40, 2099-2110, 1999). Messenger RNA was quantified by semi-quantitative or quantitative RT-PCR with the Light Cycler Fast Start DNA Master Sybr Green I kit (Hoffman-La Roche, Basel, Switzerland) on a Light Cycler System (Hoffman-La Roche, Basel, Switzerland). Primer pairs specific for the ACO, Apo CIII, Apo AI, CPT-I and CPT-II genes were used as probes. […]

Q: What does the source list for `CCCCCCCCCCCCCCSCC(=O)OCC(COC(=O)CSCCCCCCCCCCCCCC)OC(=O)CSCCCCCCCCCCCCCC` [Example 4a, 1,2,3-tritetradecylthioacetylglycerol]?
A: PPARα activation in vitro (PPARα): very strong activation of the PPARα nuclear receptor; total plasma cholesterol (gradual increase versus control group) ([1]; 300 mg/kg/d, FIG. 6A): said increase was slower; plasma triglycerides (gradual increase versus control group) ([1]; 300 mg/kg/d, FIG. 6B): said increase was markedly slower; plasma triglyceride levels, dose-effect relation ([1]; doses of 0 to 600 mg/kg/d, FIG. 10): gradual dose-dependent decrease in triglyceride levels; plasma insulin levels during a glucose tolerance test ([2]; FIG. 8): used less insulin in response to the glucose injection; insulin sensitivity ([2]; concluded from glucose tolerance test): increase in insulin sensitivity; cholesterol distribution in lipoparticles (size exclusion chromatography) ([3]; FIG. 2A): decrease in cholesterol in the different lipoparticle classes; total plasma cholesterol levels ([3]; FIG. 2B): reduction of total plasma cholesterol levels; triglyceride distribution in lipoparticles (size exclusion chromatography) ([3]; FIG. 3A): decrease in triglycerides in this lipoparticle class; plasma triglyceride levels ([3]; FIG. 3B): reduction of plasma triglyceride levels; phospholipid distribution in lipoparticles (size exclusion chromatography) ([3]; FIG. 4A): decrease in phospholipids in the different lipoparticle classes; total plasma phospholipid levels ([3]; FIG. 4B): reduction of total plasma phospholipid levels; ABCA1 gene expression (ABCA1 gene expression): very strong activation of ABCA1 gene expression; hepatic expression of ACO ([4]; FIG. 5A): strong activation of hepatic expression of ACO; hepatic expression of CPT-I ([4]; FIG. 5A): smaller increase in the expression of the genes CPT-I and CPT-II; hepatic expression of CPT-II ([4]; FIG. 5A): smaller increase in the expression of the genes CPT-I and CPT-II; hepatic Apo AI expression ([4]; FIG. 5B): slight decrease in hepatic Apo AI expression; hepatic Apo CIII expression ([4]; FIG. 5B): more marked decrease in Apo CIII expression; plasma glucose levels ([5]; FIG. 7): glucose levels were equivalent in the two groups; insulin sensitivity ([5]; concluded from insulin and glucose levels): increased insulin sensitivity; plasma insulin levels (gradual compensatory increase versus control group) ([5]; especially after 14 days, FIG. 7): said increase was slower

Q: With `CCCCCCCCCCCCCCCC(=O)OCC(COC(=O)CCCCCCCCCCCCCCC)OC(=O)CSCCCCCCCCCCCCCC` [Example 4g, 1,3-dipalmitoyl-2-tetradecylthioacetylglycerol] as the molecule, how does the plasma cholesterol ([6]; FIG. 9A) read?
A: decrease in circulating cholesterol and triglyceride levels

Q: And the plasma triglycerides ([6]; FIG. 9B)?
A: decrease in circulating cholesterol and triglyceride levels

Q: And the “hepatic expression of the ACO gene” value [7]?
A: marked activation of hepatic expression of the ACO gene

Reference: patent US7375135B2, “Fatty acid derivatives; preparation and uses thereof” (Genfit, priority 2001, dated 2008)
